# Source: US5525604A, “4-aminopyrimidine derivatives” (Ono Pharmaceutical Co., Ltd., priority 1994, dated 1996)
# Where a name gives a salt, the structure may show the parent alone.
# What was measured:
# cGMP-PDE = cGMP-PDE (Homo sapiens, UniProt O76074); assay: Inhibitory effect on cGMP-PDE (PDE IC isolated from human platelets, 3H-cGMP substrate); type: biochemical; details: 0.2 μM 3H-cGMP, pH 8.0, 2.5% DMSO
# TXA2 synthetase = target: T1, TXA2 synthetase (Rattus norvegicus, UniProt P49430); assay: Inhibitory effect on TXA2 synthetase (TXB2 by EIA in A23187-stimulated rat whole blood); type: cell-based, rat (Male Wistar rats); details: rat heparinized whole blood, Ca ionophore A23187, TXB2 by EIA, 37° C.
# T1 construct: whole blood was collected from abdominal aorta; from tissue; host or cells: heparinized whole blood of male Wistar rats (mainly platelets)
# T1 sequence (P49430 1-533): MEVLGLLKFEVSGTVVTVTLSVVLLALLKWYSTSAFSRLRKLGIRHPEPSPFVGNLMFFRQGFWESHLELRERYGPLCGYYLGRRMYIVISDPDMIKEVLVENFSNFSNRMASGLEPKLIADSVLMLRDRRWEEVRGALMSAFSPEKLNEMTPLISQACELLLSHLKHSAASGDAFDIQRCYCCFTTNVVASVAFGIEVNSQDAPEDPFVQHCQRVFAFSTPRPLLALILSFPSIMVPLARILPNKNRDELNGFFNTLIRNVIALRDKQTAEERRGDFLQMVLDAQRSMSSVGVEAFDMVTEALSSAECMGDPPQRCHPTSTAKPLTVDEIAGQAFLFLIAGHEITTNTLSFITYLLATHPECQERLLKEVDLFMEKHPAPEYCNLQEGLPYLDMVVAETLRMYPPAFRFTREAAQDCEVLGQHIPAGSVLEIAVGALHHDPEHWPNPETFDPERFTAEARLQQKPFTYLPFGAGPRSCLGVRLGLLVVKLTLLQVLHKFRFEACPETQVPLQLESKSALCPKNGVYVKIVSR
# Method: (2) Inhibitory effect on TXA2 synthetase
# Male Wistar rats were starved overnight. 500 μL of heparinized (10 U/mL) whole blood was collected from abdominal aorta using polyethylene syringe (needle: 22 or 26 G). The blood freshly drawn from animal was preincubated with 5 μL Of test compound (concentration 10 μM) at 37° C. Five minutes later, 2.5 μL of 6 mM of Ca ionophore A23187 (final concentration of […]) was added into tube, and incubation mixture was further incubated for 15 min. The reaction was terminated by centrifugation of tubes at 12,000 rpm for 2 min. TXB2 content in the supernatant was determined by EIA as follows.
# 1 mL of 0.5M glycine-HCl buffer (pH 3.2) was added to 100 μL of sample. The samples were mixed well and centrifuged at 1,700 G for 10 min. at 4° C. The extracted supernatant was applied to a SEP-PAK (registered Trade Mark) C18 cartridge (Waters Assoc.). After washing with 10 mL of distilled water followed by 10 mL each of 15% ethanol and petroleum ether, the sample was eluted with 3 mL of ethyl acetate. The ethyl acetate fraction was evaporated to dryness under gentle N2 stream and the residue was dissolved in EIA buffer (final volume of 1 mL) following the addition of […] of 0.01M NaHCO3-NaOH buffer (pH 10.0). EIA for TXB2 was carried out according to a legend attached to the kit (Chyman Chemical Co., inc.) and calculated inhibition percent. Overall recovery of TXB2 in this extraction procedure was 90%..
SMILES,IC50 (cGMP-PDE) [nM],inhibition at 10 µM (TXA2 synthetase) [%]
"c1ccc(CNc2ccnc(-n3ccnc3)n2)cc1 [1(a), 2-(1-Imidazolyl)-4-phenylmethylaminopyrimidine]",38000,
c1ccc(-c2cnc(-n3ccnc3)nc2NCc2ccc3c(c2)OCO3)cc1 [1(bb)],14,90
"CCc1cnc(-n2ccnc2)nc1NCc1ccccc1 [1(c), 2-(1-Imidazolyl)-5-ethyl-4-phenylmethylaminopyrimidine]",2500,
"c1ccc(CNc2nc(-n3ccnc3)ncc2Cc2ccccc2)cc1 [1(d), 2-(1-Imidazolyl)-5-phenylmethyl-4-phenylmethylaminopyrimidine]",1000,
"Cc1cnc(-n2ccnc2)nc1NCc1ccccc1 [1(e), 2-(1-Imidazolyl)-5-methyl-4-phenylmethylaminopyrimidine]",18000,
"Cc1nc(-n2ccnc2)nc(NCc2ccccc2)c1C [1(f), 2-(1-Imidazolyl)-5,6-dimethyl-4-phenylmethylaminopyrimidine]",3650,
"COCCNc1nc(-n2ccnc2)ncc1Cc1cccc(OC)c1 [1(g), 2-(1-Imidazolyl)-5-(3-methoxyphenyl)methyl-4-(2-methoxyethyl)aminopyrimidine]",3800,
"COc1ccc(Cc2cnc(-n3ccnc3)nc2NCCOCCO)cc1 [1(h), 2-(1-Imidazolyl)-5-(4-methoxyphenyl)methyl-4-[2-(2-hydroxyethoxy)ethyl]aminopyrimidine]",700,99
"COCCNc1nc(-n2ccnc2)ncc1Cc1ccc(OC)cc1 [1(i), 2-(1-Imidazolyl)-5-(4-methoxyphenyl)methyl-4-(2-methoxyethyl)aminopyrimidine]",3500,
"COc1ccc(Cc2cnc(-n3ccnc3)nc2NCc2ccccc2)cc1 [1(j), 2-(1-Imidazolyl)-5-(4-methoxyphenyl)methyl-4-phenylmethylaminopyrimidine]",780,94
"c1ccc(CNc2nc(-n3ccnc3)ncc2COc2ccccc2)cc1 [1(k), 2-(1-Imidazolyl)-5-phenoxymethyl-4-phenylmethylaminopyrimidine dihydrochloride]",760,
"c1ccc(CNc2nc(-n3ccnc3)ncc2Cn2ccnc2)cc1 [1(l), 2-(1-Imidazolyl)-5-(1-imidazolyl)methyl-4-phenylmethylaminopyrimidine]",35000,63
"C=C(Cl)c1cnc(-n2ccnc2)nc1NCc1ccccc1 [1(m), 2-(1-Imidazolyl)-5-(1-chlorovinyl)-4-phenylmethylaminopyrimidine hydrochloride]",1250,
"c1ccc(CNc2nc(-n3ccnc3)ncc2-c2cccs2)cc1 [1(n), 2-(1-Imidazolyl)-5-(2-thienyl)-4-phenylmethylaminopyrimidine hydrochloride]",,90
"c1ccc(CNc2nc(-n3ccnc3)ncc2-c2nccs2)cc1 [1(o), 2-(1-Imidazolyl)-5-(2-thiazolyl)-4-phenylmethylaminopyrimidine hydrochloride]",120,65
"c1csc(-c2cnc(-n3ccnc3)nc2NCc2ccc3c(c2)OCO3)c1 [1(p), 2-(1-Imidazolyl)-5-(2-thienyl)-4-(1,3-dioxaindan-5-yl)methylaminopyrimidine hydrochloride]",25,90
"OCCOCCNc1nc(-n2ccnc2)ncc1-c1cccs1 [1(q), 2-(1-Imidazolyl)-5-(2-thienyl)-4-[2-(2-hydroxyethoxy)ethyl]aminopyrimidine hydrochloride]",12500,100
"c1csc(-c2cnc(-n3ccnc3)nc2NCc2cccc3ccccc23)c1 [1(r), 2-(1-Imidazolyl)-5-(2-thienyl)-4-(1-naphthyl)methylaminopyrimidine]",350,
"COc1cccc(CNc2nc(-n3ccnc3)ncc2-c2cccs2)c1 [1(t), 2-(1-Imidazolyl)-5-(2-thienyl)-4-(3-methoxyphenyl)methylaminopyrimidine hydrochloride]",230,100
"c1coc(CNc2nc(-n3ccnc3)ncc2-c2cccs2)c1 [1(u), 2-(1-Imidazolyl)-5-(2-thienyl)-4-(2-furyl)methylaminopyrimidine hydrochloride]",1000,96
"c1csc(CNc2nc(-n3ccnc3)ncc2-c2cccs2)c1 [1(v), 2-(1-Imidazolyl)-5-(2-thienyl)-4-(2-thienyl)methylaminopyrimidine hydrochloride]",310,100
"c1cncc(CNc2nc(-n3ccnc3)ncc2-c2cccs2)c1 [1(w), 2-(1-Imidazolyl)-5-(2-thienyl)-4-(3-pyridyl)methylaminopyrimidine dihydrochloride]",2000,83
"COCCNc1nc(-n2ccnc2)ncc1-c1cccs1 [1(x), 2-(1-Imidazolyl)-5-(2-thienyl)-4-(2-methoxyethyl)aminopyrimidine hydrochloride]",6000,87
"c1ccc(CONc2nc(-n3ccnc3)ncc2-c2cccs2)cc1 [1(y), 2-(1-Imidazolyl)-5-(2-thienyl)-4-phenylmethoxyaminopyrimidine hydrochloride]",2700,89
"Clc1ccc(CNc2nc(-n3ccnc3)ncc2-c2cccs2)cc1 [1(z), 2-(1-Imidazolyl)-5-(2-thienyl)-4-(4-chlorophenyl)methylaminopyrimidine hydrochloride]",61,
"COc1cccc(Cc2cnc(-n3ccnc3)nc2NCCOCCO)c1 [Example 1, 2-(1-Imidazolyl)-4-[2-(2-hydroxyethoxy)ethyl]amino-5-(3-methoxyphenyl)methylpyrimidine]",21000,
"c1cncc(-c2ncc(-c3cccs3)c(NCc3ccc4c(c3)OCO4)n2)c1 [Example 2, 2-(3-Pyridyl)-5-(2-thienyl)-4-(1,3-dioxaindan-5-yl)methylaminopyrimidine hydrochloride]",,75
